Results on 1 compound are retold here after the NIST ThermoML archive (doi:10.1021/acs.jced.8b00600).

Data set [1] is described as follows: xn = mol fraction of the nth substance listed. As to conditions: 313.15 K; 101.3 kPa; Liquid; Vibrating tube method; x2 = 0.333.
Data set [2] in a line: refractive index (Na D-line) (dimensionless); xn = mol fraction of the nth substance listed. To be noted: 313.15 K; 101.3 kPa; Liquid; Standard Abbe refractometry; x2 = 0.333.

± gives the expanded uncertainty stated by the source.

For `OCCCCCCO` [1,6-hexanediol] + CCC[N+](CCC)(CCC)CCC.[Br-], the mass density in data set [1] was found to be 1042.25 ± 2 kg/m3. Besides, the refractive index in data set [2] is recorded as 1.47923 ± 0.002.
